In PubChem BioAssay AID248 (DTP/NCI, 2004):
Where “and” joins values, the source holds several entries; their conditions need not be identical. Equal entries are not always repeated. Toxic doses and inconclusive results are not listed. Cut-off read from the data, not from the text of the source: active = T/C of 150% or more; inactive = T/C below 125%.

Tested on: L1210 leukemia ip in BDF1 mice, survival T/C
Experiment: NCI In Vivo Anticancer Drug Screen. Data for tumor model L1210 Leukemia (intraperitoneal) in B6D2F1 (BDF1) mice
Details: endpoint: mean survival time, higher = longer survival
Outline: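 Antitumor effect is assessed in tumor-bearing animals. Survival in the compound arm is compared with a vehicle-dosed control arm and expressed as their quotient.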

[1] = dose: 100.0 mg/kg/injection, schedule: Q01DX009 (ip), vehicle: saline with Tween-80
[2] = dose: 100.0 mg/kg/injection, schedule: Q04DX003 (ip), vehicle: saline with Tween-80
[3] = dose: 200.0 mg/kg/injection, schedule: Q01DX009 (ip), vehicle: saline with Tween-80
[4] = dose: 200.0 mg/kg/injection, schedule: Q04DX003 (ip), vehicle: saline with Tween-80
[5] = dose: 400.0 mg/kg/injection, schedule: Q04DX003 (ip), vehicle: saline with Tween-80
[6] = dose: 25.0 mg/kg/injection, schedule: Q04DX002 (ip), vehicle: saline with Tween-80
[7] = dose: 50.0 mg/kg/injection, schedule: Q04DX002 (ip), vehicle: saline with Tween-80

Measured: T/C

OCC1OCCO1
inactive: [1] 96 % of control | [2] 110 % of control | [3] 93 % of control | [4] 102 % of control | dose: 400.0 mg/kg/injection, schedule: Q01DX009 (ip), vehicle: saline with Tween-80 96 % of control | [5] 100 % of control

N#CCc1ccc(Cl)cc1Cl
inactive: dose: 12.5 mg/kg/injection, schedule: Q04DX002 (ip), vehicle: Klucel (hydroxypropylcellulose) (HPC) 97 % of control | dose: 25.0 mg/kg/injection, schedule: Q04DX002 (ip), vehicle: Klucel (hydroxypropylcellulose) (HPC) 91 % of control | dose: 50.0 mg/kg/injection, schedule: Q04DX002 (ip), vehicle: Klucel (hydroxypropylcellulose) (HPC) 87 % of control

C#CC(C)(C)N1CCCCC1
inactive: dose: 25.0 mg/kg/injection, schedule: Q04DX003 (ip), vehicle: Klucel (hydroxypropylcellulose) (HPC) 110 % of control | dose: 50.0 mg/kg/injection, schedule: Q04DX003 (ip), vehicle: Klucel (hydroxypropylcellulose) (HPC) 106 % of control

C[CH2][Pb]([Br])([CH2]C)[CH2]C
inactive: dose: 6.25 mg/kg/injection, schedule: Q01DX009 (ip), vehicle: saline with Tween-80 103 % of control | dose: 12.5 mg/kg/injection, schedule: Q01DX009 (ip), vehicle: saline with Tween-80 103 % of control | dose: 25.0 mg/kg/injection, schedule: Q01DX009 (ip), vehicle: saline with Tween-80 94 % of control and 103 % of control | [6] 93 % of control | [7] 99 % of control | dose: 100.0 mg/kg/injection, schedule: Q04DX002 (ip), vehicle: saline with Tween-80 96 % of control

Cc1nc(N)[nH]c(=O)c1CCCNC(=O)c1cccc(CBr)c1
inactive: dose: 50.0 mg/kg/injection, schedule: Q01DX001 (ip), vehicle: Klucel (hydroxypropylcellulose) (HPC) 101 % of control | dose: 100.0 mg/kg/injection, schedule: Q01DX001 (ip), vehicle: Klucel (hydroxypropylcellulose) (HPC) 100 % of control | dose: 200.0 mg/kg/injection, schedule: Q04DX002 (ip), vehicle: Klucel (hydroxypropylcellulose) (HPC) 102 % of control

CCN(CC)C(=O)Sc1ccc(SC(=O)N(CC)CC)cc1
inactive: dose: 12.5 mg/kg/injection, schedule: Q04DX002 (ip), vehicle: saline with Tween-80 90 % of control | [6] 97 % of control | [7] 93 % of control | [2] 107 % of control | [4] 102 % of control | [5] 97 % of control

NP1(N)=NP(N)(N)=NP(N)(N)=N1
inactive: dose: 100.0 mg/kg/injection, schedule: Q04DX002 (ip), vehicle: saline 90 % of control | dose: 200.0 mg/kg/injection, schedule: Q04DX002 (ip), vehicle: saline 93 % of control | dose: 400.0 mg/kg/injection, schedule: Q04DX002 (ip), vehicle: saline 97 % of control

O=N[O-].O=N[O-].O=N[O-].O=N[O-].[Co+2].[NH2-].[NH2-]
inactive: [2] 115 % of control | [4] 118 % of control

NC1=CCNN1
inactive: dose: 75.0 mg/kg/injection, schedule: Q01DX001 (ip), vehicle: saline 106 % of control | dose: 150.0 mg/kg/injection, schedule: Q01DX001 (ip), vehicle: saline 93 % of control | dose: 300.0 mg/kg/injection, schedule: Q01DX001 (ip), vehicle: saline 94 % of control

Nc1ccc2c(ccc3cccc[n+]32)c1
inactive: dose: 100.0 mg/kg/injection, schedule: Q01DX001 (ip), vehicle: saline 105 % of control | dose: 200.0 mg/kg/injection, schedule: Q01DX001 (ip), vehicle: saline 108 % of control

Nc1cccc(OCCc2ccccc2)c1
inactive: dose: 100.0 mg/kg/injection, schedule: Q01DX001 (ip), vehicle: saline with Tween-80 96 % of control | dose: 200.0 mg/kg/injection, schedule: Q01DX001 (ip), vehicle: saline with Tween-80 94 % of control | dose: 400.0 mg/kg/injection, schedule: Q01DX001 (ip), vehicle: saline with Tween-80 96 % of control

CCCCCCOC(=O)Nc1cccc(O)c1
inactive: [2] 104 % of control | [4] 101 % of control | [5] 91 % of control

C=CCC(CO)(c1ccccc1)c1ccccc1
inactive: dose: 50.0 mg/kg/injection, schedule: Q01DX009 (ip), vehicle: saline with Tween-80 97 % of control | [1] 87 % of control | [3] 97 % of control

O=C1CCCCC1Nc1ccc(Cl)cc1 (stereo not drawn)
inactive: dose: 100.0 mg/kg/injection, schedule: Q01DX001 (ip), vehicle: carboxymethylcellulose (CMC) 100 % of control | dose: 200.0 mg/kg/injection, schedule: Q01DX001 (ip), vehicle: carboxymethylcellulose (CMC) 95 % of control | dose: 400.0 mg/kg/injection, schedule: Q01DX001 (ip), vehicle: carboxymethylcellulose (CMC) 95 % of control
